Patent US20220409747A1, “FIBROBLAST ACTIVATION PROTEIN (FAP)-TARGETED IMAGING AND THERAPY OF CANCERS AND OTHER FIBROTIC AND INFLAMMATORY DISEASES” (Purdue Research Foundation, priority 2019, published 2022)

Assays:
[1] = biological target: T1, FAP5-expressing HT1080-FAP cells (human FAP-transfected) (Homo sapiens, UniProt Q12884); assay: Confocal binding studies of FAP-targeting ligand on HT1080-FAP cells; format: cell-based
T1 construct: expressed in transfected cells; host or cells: HT1080
T1 sequence (Q12884 1-760): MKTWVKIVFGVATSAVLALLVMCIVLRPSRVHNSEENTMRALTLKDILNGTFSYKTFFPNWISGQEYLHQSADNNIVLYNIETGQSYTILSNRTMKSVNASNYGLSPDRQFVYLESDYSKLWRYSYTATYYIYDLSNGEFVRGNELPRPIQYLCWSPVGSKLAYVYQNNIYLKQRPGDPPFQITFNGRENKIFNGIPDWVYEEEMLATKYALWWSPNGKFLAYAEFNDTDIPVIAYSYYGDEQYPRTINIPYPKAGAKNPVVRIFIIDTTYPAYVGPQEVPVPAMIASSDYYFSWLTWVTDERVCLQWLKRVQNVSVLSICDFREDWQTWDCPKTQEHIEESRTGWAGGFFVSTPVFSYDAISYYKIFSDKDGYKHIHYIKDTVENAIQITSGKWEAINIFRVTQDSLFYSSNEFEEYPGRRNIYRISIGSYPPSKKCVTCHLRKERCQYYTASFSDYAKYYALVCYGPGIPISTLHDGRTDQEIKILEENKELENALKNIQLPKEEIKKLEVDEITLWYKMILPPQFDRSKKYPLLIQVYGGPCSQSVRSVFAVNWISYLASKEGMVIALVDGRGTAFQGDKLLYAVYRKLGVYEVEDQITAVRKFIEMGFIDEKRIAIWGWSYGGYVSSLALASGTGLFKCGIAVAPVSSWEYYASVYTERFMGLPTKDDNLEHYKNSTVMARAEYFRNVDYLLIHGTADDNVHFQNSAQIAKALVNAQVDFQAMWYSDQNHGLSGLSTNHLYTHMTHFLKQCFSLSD
Procedure: Method 1: HT1080-FAP cells ([…]) were seeded in 4-well confocal plates. The cells were allowed to grow as a monolayer over 24 h at 37° C. and were incubated with various concentrations of conjugate ranging from 3.0 nM (lowest) to 25 nM (highest) in 1% FBS in PBS for 1 h at 37° C. Cells were washed with 1% FBS (3×500 μL) and the cells were left in 500 μl of 1% FBS and images were acquired with confocal microscopy. Again, the PBS in cells was replaced with growth media and the cells were re-incubated at 37° C. for 8 to 48 h. Images acquired at different concentrations of the compound at 37° C. are shown in FIG. 3, at different time points are shown in FIG. 4, and with 100-fold excess of competition ligand are shown in FIG. 5.
Method 2: Human FAP-transfected HT1080-FAP cells were (100,000) were plated on 4-well confocal plates and incubated with different concentrations (50 nM, 25 nM, 12.5 nM, 6.25 nM, 3.125 nM and 1.65 nM) of the compound for 1 h at 37° C. The unbound fluorescence was removed by washing the cells 3× with medium, and cell-bound fluorescence was imaged using an Olympus confocal microscope. The experiment was done in triplicate.

[2] = biological target: T2, FAP5 on HT1080-FAP (HT1080-hFAP) cells (Homo sapiens, UniProt Q12884); assay: Binding assay (cell-bound fluorescence, apparent Kd) on HT1080-FAP cells
T2 construct: expressed in transfected cells; host or cells: HT1080
T2 sequence (Q12884 1-760): T1 sequence (Q12884 1-760)
Procedure: Method 1: HT1080-FAP cells (200000 cells/well) were seeded in a 24-well plate. The cells were allowed to grow as a monolayer over 24 h and incubated with various concentrations of FAP-targeted rhodamine conjugate either in the presence or absence of excess competition ligand (ligand without dye). After incubating for 1 h at 4° C. the cells were washed 3× with PBS to remove unbound fluorescence. The cells were then dissolved in 1% SDS and the cell-bound fluorescence was measured using a Neo2 Plate Reader.
(§1) Method 2: 100,000 HT1080-hFAP and HT1080 cells were seeded in amine-coated 24-well plates to ensure cell adherence. Upon formation of a monolayer, cells were incubated with various concentrations of the compound in the presence or absence of excess of unlabeled ligand. After incubation for 1 h, the cells were washed 3× with medium to remove to unbound fluorescence and dissolved in 1% SDS. The cell-bound fluorescence was measured using a fluorescence spectrophotometer (NeO2 Plate reader) set with a λex=555 nm and λem=575 nm. Cell-bound fluorescence was plotted against various concentrations and the apparent Kd was determined by using one-site binding (hyperbola) curve fit in GraphPad prism7. The experiment was done in triplicate.

[3] = tested on: HT1080 cells that do not express FAP5; assay: Binding assay on HT1080 cells that do not express FAP5; design: species or system human; details: FIG. 8
Procedure: as §1

[4] = biological target: T3, FAP (e.g., FAP5) on HEK-FAP cells (Homo sapiens, UniProt Q12884); assay: Displacement binding curves in HEK-FAP cells; details: displacement binding (FIGS. 21-22), read-out: affinity for cells that express FAP
T3 construct: expressed in transfected cells; host or cells: HEK
T3 sequence (Q12884 1-760): T1 sequence (Q12884 1-760)

time remaining localized and internalized to FAP5-expressing cells ([1]; 12.5 nM, e.g., 1 hour, 8 hours, 24 hours, or more (FIG. 4))	localization to cells expressing FAP5 (confocal) ([1]; HT1080-FAP cells, 50 nM, 25 nM, 12.5 nM, and 6.5 nM (FIG. 3))	Kd ([2]; cells expressing FAP5 (FIG. 7))	binding to HT1080 cells expressing FAP5 in the presence of an unlabelled FAP5 ligand ([2]; competitor e.g., compound 8, FIG. 8)	Kd [4]	SMILES	binding to HT1080 cells that do not express FAP5 [3]
at least 1 hour	localizes to cells	5 to 15 nM	does not bind	1 to 10 nM	CN(C)c1ccc2c(c1)OC1=CC(=[N+](C)C)C=CC1C2c1ccc(C(=O)NCCOCCOCCOCCOCCC(=O)NCCNC(=O)c2ccc(-c3cn(Cc4cccc5c4CN(C(=O)C[C@@H]4C[C@@H](C(=O)N6CC(F)(F)C[C@H]6C#N)NC4=O)C5)nn3)cc2)cc1C(=O)O (stereo partly drawn) [compound 1]	does not bind
–	–	–	–	1 to 10 nM	CN(C)c1ccc2c(-c3ccc(C(=O)NCCNC(=O)c4cccc5c4CN(C(=O)C[C@@H]4C[C@@H](C(=O)N6CC(F)(F)C[C@H]6C#N)NC4=O)C5)cc3C(=O)[O-])c3ccc(=[N+](C)C)cc-3oc2c1 [compound 5]	–
–	–	–	–	1 to 10 nM	CN(C)c1ccc2c(-c3ccc(C(=O)NCCNC(=O)CCc4cccc5c4CN(C(=O)C[C@@H]4C[C@@H](C(=O)N6CC(F)(F)C[C@H]6C#N)NC4=O)C5)cc3C(=O)[O-])c3ccc(=[N+](C)C)cc-3oc2c1 [compound 6]	–
–	–	–	–	1 to 10 nM	N#C[C@@H]1C[C@H](F)CN1C(=O)[C@@H]1C[C@@H](CC(=O)N2Cc3cccc(Cn4cc(-c5ccc(C(=O)NCCNC(=O)CCC(=O)O)cc5)nn4)c3C2)C(=O)N1 [compound 21]	–
